{"source": "patent US20170224662A1", "about": "(priority 2016, published 2017)", "assay": "Binary excipient screening: stability of CPMM 1 mg/mL in IV-compatible excipient solutions in 10 mM pH 3 phosphate buffer", "assay_type": "physicochemical", "conditions": "for CPMM % Purity: t = 0", "protocol": "CPMM was evaluated for compatibility with excipients that are suitable for IV administration. A buffer solution (phosphate at pH 3) was selected as the diluent for excipient screening studies. […] CPMM was solubilized in each excipient solution at 1 mg/mL.\nWhile CPMM completely dissolved in the control sample within several minutes, many of the excipient solutions required overnight storage at 5° C. to solubilize the drug.\nEach excipient sample solution was placed on a two-week stability study at 25° C./60% relative humidity and 40° C./75% relative humidity, and analyzed for CPMM purity at t=0, 1, and 2 weeks by comparing individual samples to their respective excipient blank solution.", "note": "Marks after values point to notes of the source that are not given here."}
{"smiles": "COC(=O)C1(OC(=O)c2cncn2[C@H](C)c2ccccc2)CC1", "note": "[CPMM, 1-(methoxycarbonyl)cyclopropyl-1-[(1R)-1-phenylethyl]-1H-imidazole-5-carboxylate]", "values": [{"measurement": "Change in CPMM % Purity", "setting": "NaCl 5% in pH 3 buffer, 1 week 40° C./75% RH", "result": "−4.0", "unit": "%"}, {"measurement": "Change in CPMM % Purity", "setting": "NaCl 5% in pH 3 buffer, 2 weeks 25° C./60% RH", "result": "−1.9", "unit": "%"}, {"measurement": "Change in CPMM % Purity", "setting": "NaCl 5% in pH 3 buffer, 2 weeks 40° C./75% RH", "result": "−7.2", "unit": "%"}, {"measurement": "CPMM % Purity", "setting": "NaCl 5% in pH 3 buffer", "result": 99.4, "unit": "%"}, {"measurement": "Change in CPMM % Purity", "setting": "PEG 400 10% in pH 3 buffer, 1 week 25° C./60% RH", "result": "−1.2", "unit": "%"}, {"measurement": "Change in CPMM % Purity", "setting": "PEG 400 10% in pH 3 buffer, 1 week 40° C./75% RH", "result": "−4.0", "unit": "%"}, {"measurement": "Change in CPMM % Purity", "setting": "PEG 400 10% in pH 3 buffer, 2 weeks 25° C./60% RH", "result": "−2.0", "unit": "%"}, {"measurement": "Change in CPMM % Purity", "setting": "PEG 400 10% in pH 3 buffer, 2 weeks 40° C./75% RH", "result": "−7.0", "unit": "%"}, {"measurement": "CPMM % Purity", "setting": "PEG 400 10% in pH 3 buffer", "result": 99.5, "unit": "%"}, {"measurement": "CPMM % Purity", "setting": "PVP K17 5% in pH 3 buffer, excipient peak co-elutes with several related substances, not accounted for", "result": 99.6, "unit": "%*"}, {"measurement": "Change in CPMM % Purity", "setting": "Polysorbate 20 1% in pH 3 buffer, 1 week 25° C./60% RH", "result": "−1.4", "unit": "%"}, {"measurement": "Change in CPMM % Purity", "setting": "Polysorbate 20 1% in pH 3 buffer, 1 week 40° C./75% RH", "result": "−4.6", "unit": "%"}, {"measurement": "Change in CPMM % Purity", "setting": "Polysorbate 20 1% in pH 3 buffer, 2 weeks 25° C./60% RH", "result": "−2.1", "unit": "%"}, {"measurement": "Change in CPMM % Purity", "setting": "Polysorbate 20 1% in pH 3 buffer, 2 weeks 40° C./75% RH", "result": "−8.1", "unit": "%"}, {"measurement": "CPMM % Purity", "setting": "Polysorbate 20 1% in pH 3 buffer", "result": 99.4, "unit": "%"}, {"measurement": "Change in CPMM % Purity", "setting": "Polysorbate 80 1% in pH 3 buffer, 1 week 25° C./60% RH, may be due to excipient impurities", "result": "−4.2", "unit": "%^†"}, {"measurement": "Change in CPMM % Purity", "setting": "Polysorbate 80 1% in pH 3 buffer, 1 week 40° C./75% RH, may be due to excipient impurities", "result": "−8.3", "unit": "%^†"}, {"measurement": "Change in CPMM % Purity", "setting": "Polysorbate 80 1% in pH 3 buffer, 2 weeks 25° C./60% RH, may be due to excipient impurities", "result": "−5.2", "unit": "%^†"}, {"measurement": "Change in CPMM % Purity", "setting": "Polysorbate 80 1% in pH 3 buffer, 2 weeks 40° C./75% RH, may be due to excipient impurities", "result": "−15.0", "unit": "%^†"}, {"measurement": "CPMM % Purity", "setting": "Polysorbate 80 1% in pH 3 buffer", "result": 99.4, "unit": "%"}, {"measurement": "Change in CPMM % Purity", "setting": "Propylene Glycol 10% in pH 3 buffer, 1 week 25° C./60% RH", "result": "−1.2", "unit": "%"}, {"measurement": "Change in CPMM % Purity", "setting": "Propylene Glycol 10% in pH 3 buffer, 1 week 40° C./75% RH", "result": "−4.0", "unit": "%"}, {"measurement": "Change in CPMM % Purity", "setting": "Propylene Glycol 10% in pH 3 buffer, 2 weeks 25° C./60% RH", "result": "−1.9", "unit": "%"}, {"measurement": "Change in CPMM % Purity", "setting": "Propylene Glycol 10% in pH 3 buffer, 2 weeks 40° C./75% RH", "result": "−6.9", "unit": "%"}, {"measurement": "CPMM % Purity", "setting": "Propylene Glycol 10% in pH 3 buffer", "result": 99.4, "unit": "%"}, {"measurement": "Change in CPMM % Purity", "setting": "SBECD 10% in pH 3 buffer, 1 week 25° C./60% RH", "result": "−0.4", "unit": "%"}, {"measurement": "Change in CPMM % Purity", "setting": "SBECD 10% in pH 3 buffer, 1 week 40° C./75% RH", "result": "−1.3", "unit": "%"}, {"measurement": "Change in CPMM % Purity", "setting": "SBECD 10% in pH 3 buffer, 2 weeks 25° C./60% RH", "result": "−0.4", "unit": "%"}, {"measurement": "Change in CPMM % Purity", "setting": "SBECD 10% in pH 3 buffer, 2 weeks 40° C./75% RH", "result": "−2.1", "unit": "%"}, {"measurement": "CPMM % Purity", "setting": "SBECD 10% in pH 3 buffer", "result": 99.4, "unit": "%"}, {"measurement": "Change in CPMM % Purity", "setting": "Sodium Bisulfite 0.5% in pH 3 buffer, 1 week 25° C./60% RH", "result": "−1.9", "unit": "%"}, {"measurement": "Change in CPMM % Purity", "setting": "Sodium Bisulfite 0.5% in pH 3 buffer, 1 week 40° C./75% RH", "result": "−7.2", "unit": "%"}, {"measurement": "Change in CPMM % Purity", "setting": "Sodium Bisulfite 0.5% in pH 3 buffer, 2 weeks 25° C./60% RH", "result": "−3.2", "unit": "%"}, {"measurement": "Change in CPMM % Purity", "setting": "Sodium Bisulfite 0.5% in pH 3 buffer, 2 weeks 40° C./75% RH", "result": "−12.2", "unit": "%"}, {"measurement": "CPMM % Purity", "setting": "Sodium Bisulfite 0.5% in pH 3 buffer", "result": 99.4, "unit": "%"}, {"measurement": "Change in CPMM % Purity", "setting": "Solutol HS15 1% in pH 3 buffer, 1 week 25° C./60% RH", "result": "−1.3", "unit": "%"}, {"measurement": "Change in CPMM % Purity", "setting": "Solutol HS15 1% in pH 3 buffer, 1 week 40° C./75% RH", "result": "−4.2", "unit": "%"}, {"measurement": "Change in CPMM % Purity", "setting": "Solutol HS15 1% in pH 3 buffer, 2 weeks 25° C./60% RH", "result": "−2.1", "unit": "%"}, {"measurement": "Change in CPMM % Purity", "setting": "Solutol HS15 1% in pH 3 buffer, 2 weeks 40° C./75% RH", "result": "−7.3", "unit": "%"}, {"measurement": "CPMM % Purity", "setting": "Solutol HS15 1% in pH 3 buffer", "result": 99.4, "unit": "%"}, {"measurement": "Change in CPMM % Purity", "setting": "Sorbitol 5% in pH 3 buffer, 1 week 25° C./60% RH", "result": "−1.3", "unit": "%"}, {"measurement": "Change in CPMM % Purity", "setting": "Sorbitol 5% in pH 3 buffer, 1 week 40° C./75% RH", "result": "−4.5", "unit": "%"}, {"measurement": "Change in CPMM % Purity", "setting": "Sorbitol 5% in pH 3 buffer, 2 weeks 25° C./60% RH", "result": "−2.3", "unit": "%"}, {"measurement": "Change in CPMM % Purity", "setting": "Sorbitol 5% in pH 3 buffer, 2 weeks 40° C./75% RH", "result": "−8.3", "unit": "%"}, {"measurement": "CPMM % Purity", "setting": "Sorbitol 5% in pH 3 buffer", "result": 99.5, "unit": "%"}, {"measurement": "Change in CPMM % Purity", "setting": "Sucrose 5% in pH 3 buffer, 1 week 25° C./60% RH", "result": "−1.5", "unit": "%"}, {"measurement": "Change in CPMM % Purity", "setting": "Sucrose 5% in pH 3 buffer, 1 week 40° C./75% RH", "result": "−5.2", "unit": "%"}, {"measurement": "Change in CPMM % Purity", "setting": "Sucrose 5% in pH 3 buffer, 2 weeks 25° C./60% RH", "result": "−2.5", "unit": "%"}, {"measurement": "Change in CPMM % Purity", "setting": "Sucrose 5% in pH 3 buffer, 2 weeks 40° C./75% RH", "result": "−9.0", "unit": "%"}, {"measurement": "CPMM % Purity", "setting": "Sucrose 5% in pH 3 buffer", "result": 99.4, "unit": "%"}, {"measurement": "Change in CPMM % Purity", "setting": "Trehalose 5% in pH 3 buffer, 1 week 25° C./60% RH", "result": "−1.3", "unit": "%"}, {"measurement": "Change in CPMM % Purity", "setting": "Trehalose 5% in pH 3 buffer, 1 week 40° C./75% RH", "result": "−4.6", "unit": "%"}, {"measurement": "Change in CPMM % Purity", "setting": "Trehalose 5% in pH 3 buffer, 2 weeks 25° C./60% RH", "result": "−2.3", "unit": "%"}, {"measurement": "Change in CPMM % Purity", "setting": "Trehalose 5% in pH 3 buffer, 2 weeks 40° C./75% RH", "result": "−8.4", "unit": "%"}, {"measurement": "CPMM % Purity", "setting": "Trehalose 5% in pH 3 buffer", "result": 99.4, "unit": "%"}]}
